Assays:
[1] = system: MRC5; assay: Cytotoxicity against human MRC5 cells after 48 hrs by MTT assay; format: cell-based; conditions: MRC5, 48 h
[2] = system: A549; assay: Cytotoxicity against human A549 cells after 48 hrs by MTT assay; format: functional, cell-based; conditions: A549, 48 h
[3] = Cytotoxicity against human MRC5 cells assessed as cell survival at 10 to 320 uM after 48 hrs by MTT assay; format: cell-based; conditions: read-out: Survival
[4] = Cytotoxicity against human MCF10 cells assessed as cell survival at 264 uM after 48 hrs by MTT assay; format: cell-based; conditions: read-out: Survival
[5] = system: A549; assay: Cytotoxicity against human A549 cells at 300 uM after 48 hrs by MTT assay; format: functional
[6] = Cytotoxicity against human VH10 cells at 1 mM after 48 hrs by MTT assay; format: cell-based; conditions: vh10, 48 h, 1000 µM
[7] = system: UACC-62; assay: Cytotoxicity against human UACC62 cells assessed as cell viability at 1 mM after 48 hrs by MTT assay; format: functional; conditions: UACC-62, 48 h, read-out: Activity
[8] = Cytotoxicity against human VH10 cells after 48 hrs by MTT assay; format: cell-based; conditions: VH10, 48 h
[9] = system: UACC-62; assay: Cytotoxicity against human UACC62 cells after 48 hrs by MTT assay; format: functional, cell-based; conditions: UACC-62, 48 h
[10] = system: MCF10; assay: Cytotoxicity against human MCF10 cells after 48 hrs by MTT assay; format: cell-based; conditions: MCF10, 48 h
[11] = system: MCF7; assay: Cytotoxicity against human MCF7 cells after 48 hrs by MTT assay; format: functional, cell-based; conditions: MCF7, 48 h

Structure (SMILES)	IC50 [1] [µM]	IC50 [2] [µM]	other results
Cc1ccc(S(=O)(=O)N2CC2(CO[C@@H]2O[C@@H]3CO[C@H](c4ccccc4)O[C@@H]3[C@H](OCc3ccccc3)[C@H]2OCc2ccccc2)c2ccccc2)cc1 (stereo partly drawn)	570	599	–
Cc1ccc(S(=O)(=O)N2CC2CO[C@@H]2O[C@@H]3CO[C@H](c4ccccc4)O[C@@H]3[C@H](OCc3ccccc3)[C@H]2OCc2ccccc2)cc1 (stereo partly drawn)	183	73	viability at 48 h, up to 320 µM [3]: 90%
Cc1ccc(S(=O)(=O)N2C(CO[C@@H]3O[C@@H]4CO[C@H](c5ccccc5)O[C@@H]4[C@H](O)[C@H]3O)C2(C)C)cc1 (stereo partly drawn)	567	389	–
Cc1ccc(S(=O)(=O)N2C(C)C2CO[C@@H]2O[C@@H]3CO[C@H](c4ccccc4)O[C@@H]3[C@H](O)[C@H]2O)cc1 (stereo partly drawn)	544	351	–
Cc1ccc(S(=O)(=O)N2C(C)C2CO[C@@H]2O[C@@H]3CO[C@H](c4ccccc4)O[C@@H]3[C@H](OCc3ccccc3)[C@H]2OCc2ccccc2)cc1 (stereo partly drawn)	> 1000	804	–
CCCCCCCC1C(CO[C@@H]2O[C@@H]3CO[C@H](c4ccccc4)O[C@@H]3[C@H](OCc3ccccc3)[C@H]2O)N1S(=O)(=O)c1ccc(C)cc1 (stereo partly drawn)	> 1000	235	viability at 48 h, up to 320 µM [3]: 90%
CCCCCCCCCCCCNCC(C)(CO[C@@H]1O[C@@H]2CO[C@H](c3ccccc3)O[C@@H]2[C@H](OCc2ccccc2)[C@H]1OCc1ccccc1)NS(=O)(=O)c1ccc(C)cc1 (stereo partly drawn)	156	492	–
Cc1ccc(S(=O)(=O)N2CC2(C)CO[C@@H]2O[C@@H]3CO[C@H](c4ccccc4)O[C@@H]3[C@H](OCc3ccccc3)[C@H]2OCc2ccccc2)cc1 (stereo partly drawn)	> 1000	153	viability at 48 h, 264 µM [4]: 80%; Activity [5]: 30%; Activity [6]: Non-toxic; viability at 48 h, up to 320 µM [3]: 90%; viability at 1000 µM [7]: 10%; IC50 [8]: > 1000 µM; IC50 [9]: 196 µM; IC50 [10]: 567 µM; IC50 [11]: 12 µM
CCCCCCCCCC1(CO[C@@H]2O[C@@H]3CO[C@H](c4ccccc4)O[C@@H]3[C@H](OCc3ccccc3)[C@H]2OCc2ccccc2)CN1S(=O)(=O)c1ccc(C)cc1 (stereo partly drawn)	575	154	Activity [5]: 30%; viability at 48 h, up to 320 µM [3]: 90%
CCCC1(CO[C@@H]2O[C@@H]3CO[C@H](c4ccccc4)O[C@@H]3[C@H](OCc3ccccc3)[C@H]2OCc2ccccc2)CN1S(=O)(=O)c1ccc(C)cc1 (stereo partly drawn)	793	579	–
CCCCCCCCCCCCCCC1(CO[C@@H]2O[C@@H]3CO[C@H](c4ccccc4)O[C@@H]3[C@H](OCc3ccccc3)[C@H]2OCc2ccccc2)CN1S(=O)(=O)c1ccc(C)cc1 (stereo partly drawn)	1000	1000	–
Cc1ccc(S(=O)(=O)N2CC2(C)CO[C@@H]2O[C@@H]3CO[C@H](c4ccccc4)O[C@@H]3[C@H](O)[C@H]2O)cc1 (stereo partly drawn)	312	154	–
CCCCCCCCCCCCCCC(CO[C@@H]1O[C@@H]2CO[C@H](c3ccccc3)O[C@@H]2[C@H](OCc2ccccc2)[C@H]1OCc1ccccc1)(CN1CCN(CCO)CC1)NS(=O)(=O)c1ccc(C)cc1 (stereo partly drawn)	2	15	–
O=c1[nH]cc(F)c(=O)[nH]1 [FLUOROURACIL]	–	–	IC50 [8]: > 1000 µM; IC50 [9]: 264 µM
Cc1ccc(S(=O)(=O)N2C(CO[C@@H]3O[C@@H]4CO[C@H](c5ccccc5)O[C@@H]4[C@H](OCc4ccccc4)[C@H]3OCc3ccccc3)C2(C)C)cc1 (stereo partly drawn)	> 1000	> 1000	–

Source: ChEMBL document CHEMBL3085740, “Aziridines from alkenyl-β-D-galactopyranoside derivatives: Stereoselective synthesis and in vitro selective anticancer activity” (Eur J Med Chem, 2013)
